Holding throughout (assay type): physicochemical
The nature of data set [1]: Stability study in climatic chamber: crystalline form and phase change by XRPD. The method, then: (§1) The stabilities of two crystalline forms of dronedarone base, namely form B according to the instant invention and form A described above, are studied in a climatic chamber (reference : Firlabo SP_BVEHF) at 50° C., with or without 80% relative humidity (RH). The duration time of the stability study is set up at 1 month. Samples are monitored in terms of appearance by microscope observation, chemical degradation by HPLC, crystalline form and phase change by XRPD (X-Ray Powder Diffraction, reference : Bruker D5000) and thermal behavior by DSC and TGA (references : TA Instrument Q100/Q1000 for DSC analyses and 050/Q500 for TGA analyses). HPLC is performed with a Waters 2487 apparatus, using as mobile phase a gradient of acetonitrile and pH 4.0 phosphate buffer (30/70 to 70/30, V/V, gradient).

A short description of data set [2]: Stability study in climatic chamber: appearance. The following applies: after 15 and 30 days at 50° C./80% RH. The method, then:
as §1

Data set [3] in a line: Thermodynamic stability of the crystalline phases (DSC, X-ray at various temperatures). The following applies: at and around room temperature / upon heating. The method, then: X-ray diffractograms registered at various temperatures from room temperature to 100° C., at intervals of 10° C., have confirmed the solid-solid transition from form A to form C. A first crystalline solid phase, designated as form A, exists from room temperature to […] Two crystalline forms are thus observed : form A from room temperature to about 50° C., and form C appearing above 50° C. and melting between 60 and 70° C.
All DSC measurements are performed with a Mettler DSC822e (module DSC822e/700/109/414935/0025). If not indicated differently, 40 μL Al-crucibles with sealed lid and hole are used. All measurements are carried out in a nitrogen gas flow of 50 mL/min and chosen heating rate was 10° C./min., with a heating from 25° C. to at least 150° C.
In comparison, the crystallized form C of dronedarone base presents a melting point at about 69° C. On heating with a rate of 10° C./min, form A transforms to form C at about 54° C.; on further heating, form C melts at about 65° C. (onset temperature of the second endothermic event). After formation of form C, if the heating is stopped below form C melting point and the medium is then cooled back to room temperature, form C typically transforms back to form A between 50 and 45° C.

A short description of data set [4]: Stability study in climatic chamber: thermal behavior by DSC and TGA. As to the method:
as §1
A general note: DSC measures the heat that a sample takes up or gives off during a temperature scan.

Data set [5] in a line: Stability study in climatic chamber: chemical degradation by HPLC. The following applies: 50° C. with or without 80% RH, up to 30 days. As to the method: as §1
The results in terms of chemical degradation are presented in table 8, which summarizes the content in degradation product measured in the samples. The results in table 8 represent percentages in impurities (impurities appearing after the storage for 15 to 30 days, i.e. total impurities after storage minus impurities already present at t=0).
The percentages correspond to the area under the peaks detected in chromatography.

Data set [6] can be described thus: Dynamic Vapor Sorption (DVS) moisture sorption/desorption isotherms. The following applies: 25° C., relative humidity 0 to 95% and back, two cycles. The method, then: Moisture sorption/desorption isotherms are recorded on a DVS-1 from Surface Measurement Systems. Two cycles are run at 25° C., in which the relative humidity is stepped from 0 to 95% and back to 0%. The complete measurement time for both cycles is about 35 h. The data is evaluated using the software DVSWin V. 2.15.
The DVS isotherms of the crystallized form B of dronedarone base are represented on FIG. 5, wherein the change in dry mass (expressed in percentages) is plotted against the target relative humidity (RH, expressed in percentages). On FIG. 5, <<Sorp>> and <<Desorp>> respectively designate the humidity sorption and desorption of each cycle.

SMILES strings stand for the structures. “Also recorded” adds a separate entry of the source.

These results are taken from patent publication US20110230553A1, “CRYSTALLIZED FORM OF DRONEDARONE BASE” (SANOFI-AVENTIS, priority 2010, published 2011).

For the molecule `CCCCc1oc2ccc(NS(C)(=O)=O)cc2c1C(=O)c1ccc(OCCCN(CCCC)CCCC)cc1` [Form A, 2-n-butyl-3-[4-(3-di-n-butylaminopropoxy)benzoyl]-5-methylsulfonamido-benzofuran], the “crystalline form change by XRPD” value in data set [1] (after 15 days at 50° C./80% RH) is reported as “appearance of some peaks of form B”. The “appearance after storage (visual)” value in data set [2] is given as “yellow coloration; also recorded: agglomeration of the powder”. Moreover, in data set [3], the “thermodynamic stability of the solid form” value (from here on “thermodynamic stability”) was “transforms to form C upon heating”. Further, in data set [4] (stored at 50° C./80% RH), the “change in the DSC spectrum after storage” value was “additional endothermic peak”.
As to `CCCCc1oc2ccc(NS(C)(=O)=O)cc2c1C(=O)c1ccc(OCCCN(CCCC)CCCC)cc1` [Form B, 2-n-butyl-3-[4-(3-di-n-butylaminopropoxy)benzoyl]-5-methylsulfonamido-benzofuran], the “chemical stability compared under the same storage conditions” value in data set [5] is recorded as “more stable than form A”. Also, the “crystalline form change by XRPD” value in data set [1] (all tested conditions, up to 30 days) is “no change is detected”. Moreover, the “stability in terms of crystalline phase” value in data set [1] (storage at 50° C. with or without 80% RH) was “more stable than form A”. Besides, in data set [2], the “appearance after storage (visual)” value is reported as “no change is detected”. The “thermodynamic stability” value in data set [3] is recorded as “thermodynamically most stable one”. Moreover, in data set [6], the hygroscopicity result was “low”. In addition, the “change in the DSC spectrum after storage” value in data set [4] (whatever the storage conditions) is on record as “No change”.
With `CCCCc1oc2ccc(NS(C)(=O)=O)cc2c1C(=O)c1ccc(OCCCN(CCCC)CCCC)cc1` [Form C, 2-n-butyl-3-[4-(3-di-n-butylaminopropoxy)benzoyl]-5-methylsulfonamido-benzofuran], the “thermodynamic stability” value in data set [3] is on record as “unstable at room temperature”.
